Key:
Type in all cases: in vivo
Italian ryegrass [1] = experiment: Test Example 3: herbicidal effects in soil treatment; conditions: dose 3.2 g/a
In short: (§1)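 Seeds were sown in sterilized diluvial soil and covered with about 1.5 cm of soil. Compounds, formulated as emulsifiable concentrates and diluted with water, were sprayed evenly over the soil surface at set doses in g/a. Herbicidal effect was scored on a rating scale three weeks later.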

large crabgrass [2] = experiment: as above; conditions: dose 3.2 g/a
In short: as §1

wild oat [3] = experiment: as above; conditions: dose 3.2 g/a
In short: as §1

giant foxtail [4] = experiment: as above; conditions: dose 3.2 g/a
In short: as §1

common lambsquater [5] = experiment: as above; conditions: dose 3.2 g/a
In short: as §1

common ragweed [6] = experiment: as above; conditions: dose 3.2 g/a
In short: as §1

posumbu knotweed [7] = experiment: as above; conditions: dose 3.2 g/a
In short: as §1

redroot pigweed [8] = experiment: as above; conditions: dose 3.2 g/a
In short: as §1

common chickweed [9] = experiment: as above; conditions: dose 3.2 g/a
In short: as §1

water foxtail [10] = experiment: as above; conditions: dose 3.2 g/a
In short: as §1

barnyardgrass [11] = experiment: as above; conditions: dose 3.2 g/a
In short: as §1

transplanted rice = experiment: Test Example 1: preemergence treatment under submerged conditions, effect on crop; conditions: dose 2.52 g/a
In short: (§2)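 Alluvial soil flooded to 4 cm depth; barnyardgrass, bulrush and ducksalad sown and 2.5-leaf rice seedlings transplanted. Same day, water-diluted emulsifiable concentrates applied to the water surface at set doses (g/a). Kept at 25–30 °C in greenhouse; effects scored 0–5 by mortality after three weeks.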

bulrush [12] = experiment: Test Example 1: herbicidal effects in preemergence treatment under submerged conditions; conditions: dose 2.52 g/a
In short: as §2

ducksalad [13] = experiment: as above; conditions: dose 2.52 g/a
In short: as §2

barnyardgrass [14] = experiment: as above; conditions: dose 2.52 g/a
In short: as §2

Italian ryegrass [15] = experiment: Test Example 4: herbicidal effect in foliage treatment; conditions: dose 3.2 g/a, three weeks after application
In short: (§3)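 Doses are given in grams per are of applied compound, sprayed as water-diluted emulsifiable concentrate onto foliage of 14-day-old plants grown at 25 to 30° C. Herbicidal activity was assessed visually on a rating scale after three weeks.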

large crabgrass [16] = experiment: as above; conditions: dose 3.2 g/a, three weeks after application
In short: as §3

wild oat [17] = experiment: as above; conditions: dose 3.2 g/a, three weeks after application
In short: as §3

beadstraw = experiment: as above; conditions: dose 3.2 g/a, three weeks after application
In short: as §3

giant foxtail [18] = experiment: as above; conditions: dose 3.2 g/a, three weeks after application
In short: as §3

velvetleaf [19] = experiment: as above; conditions: dose 3.2 g/a, three weeks after application
In short: as §3

common lambsquater [20] = experiment: as above; conditions: dose 3.2 g/a, three weeks after application
In short: as §3

common ragweed [21] = experiment: as above; conditions: dose 3.2 g/a, three weeks after application
In short: as §3

posumbu knotweed [22] = experiment: as above; conditions: dose 3.2 g/a, three weeks after application
In short: as §3

redroot pigweed [23] = experiment: as above; conditions: dose 3.2 g/a, three weeks after application
In short: as §3

common chickweed [24] = experiment: as above; conditions: dose 3.2 g/a, three weeks after application
In short: as §3

water foxtail [25] = experiment: as above; conditions: dose 3.2 g/a, three weeks after application
In short: as §3

barnyardgrass [26] = experiment: as above; conditions: dose 3.2 g/a, three weeks after application
In short: as §3

bulrush [27] = experiment: Test Example 2: herbicidal effects during the vegetation period under submerged conditions; conditions: treatment during the vegetation period under submerged conditions; dose 2.52 g/a
In short: (§4)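 Barnyardgrass, bulrush and ducksalad were co-sown in alluvial soil flooded to 4 cm and grown in a greenhouse at 25 to 30° C. At the 1- or 2-leaf stage, water-diluted emulsifiable concentrates went onto the water surface at set doses (g/a). Herbicidal effect was scored three weeks later on a graded scale.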

ducksalad [28] = experiment: as above; conditions: treatment during the vegetation period under submerged conditions; dose 2.52 g/a
In short: as §4

barnyardgrass [29] = experiment: as above; conditions: treatment during the vegetation period under submerged conditions; dose 2.52 g/a
In short: as §4

velvetleaf [30] = experiment: Test Example 3: herbicidal effects in soil treatment; conditions: dose 3.2 g/a
In short: as §1

O=C1CC(c2ccccc2)OCN1Cc1ccccc1N(C(=O)OCCCl)S(=O)(=O)C(F)(F)F (centres unmarked) [II-12]
H: Italian ryegrass, herbicidal effect (evaluation scale 0-5) (Italian ryegrass [1]): 4 (mortality of at least 70% and less than 90%)
D: large crabgrass, herbicidal effect (evaluation scale 0-5) (large crabgrass [2]): 4 (mortality of at least 70% and less than 90%)
F: wild oat, herbicidal effect (evaluation scale 0-5) (wild oat [3]): 0 (mortality of less than 5% (almost ineffective))
E: giant foxtail, herbicidal effect (evaluation scale 0-5) (giant foxtail [4]): 5 (mortality of 90% or above (nearly complete death))
L: common lambsquater, herbicidal effect (evaluation scale 0-5) (common lambsquater [5]): 0 (mortality of less than 5% (almost ineffective))
J: common ragweed, herbicidal effect (evaluation scale 0-5) (common ragweed [6]): 0 (mortality of less than 5% (almost ineffective))
M: posumbu knotweed, herbicidal effect (evaluation scale 0-5) (posumbu knotweed [7]): 0 (mortality of less than 5% (almost ineffective))
K: redroot pigweed, herbicidal effect (evaluation scale 0-5) (redroot pigweed [8]): 0 (mortality of less than 5% (almost ineffective))
N: common chickweed, herbicidal effect (evaluation scale 0-5) (common chickweed [9]): 3 (mortality of at least 40% and less than 70%)
G: water foxtail, herbicidal effect (evaluation scale 0-5) (water foxtail [10]): 5 (mortality of 90% or above (nearly complete death))
A: barnyardgrass, herbicidal effect (evaluation scale 0-5) (barnyardgrass [11]): 4 (mortality of at least 70% and less than 90%)
a: transplanted rice, effect on crop (evaluation scale 0-5) (transplanted rice): 0 (mortality of less than 5% (almost ineffective))
B: bulrush, herbicidal effect (evaluation scale 0-5) (bulrush [12]): 5 (mortality of 90% or above (nearly complete death))
C: ducksalad, herbicidal effect (evaluation scale 0-5) (ducksalad [13]): 5 (mortality of 90% or above (nearly complete death))
A: barnyardgrass, herbicidal effect (evaluation scale 0-5) (barnyardgrass [14]): 5 (mortality of 90% or above (nearly complete death))
H: Italian ryegrass, herbicidal effect (Italian ryegrass [15]): 0 (mortality of less than 5% (almost ineffective))
D: large crabgrass, herbicidal effect (large crabgrass [16]): 2 (mortality of at least 20% and less than 40%)
F: wild oat, herbicidal effect (wild oat [17]): 0 (mortality of less than 5% (almost ineffective))
O: beadstraw, herbicidal effect (beadstraw): 4 (mortality of at least 70% and less than 90%)
E: giant foxtail, herbicidal effect (giant foxtail [18]): 3 (mortality of at least 40% and less than 70%)
I: velvetleaf, herbicidal effect (velvetleaf [19]): 3 (mortality of at least 40% and less than 70%)
L: common lambsquater, herbicidal effect (common lambsquater [20]): 0 (mortality of less than 5% (almost ineffective))
J: common ragweed, herbicidal effect (common ragweed [21]): 4 (mortality of at least 70% and less than 90%)
M: posumbu knotweed, herbicidal effect (posumbu knotweed [22]): 1 (mortality of at least 5% and less than 20%)
K: redroot pigweed, herbicidal effect (redroot pigweed [23]): 0 (mortality of less than 5% (almost ineffective))
N: common chickweed, herbicidal effect (common chickweed [24]): 3 (mortality of at least 40% and less than 70%)
G: water foxtail, herbicidal effect (water foxtail [25]): 4 (mortality of at least 70% and less than 90%)
A: barnyardgrass, herbicidal effect (barnyardgrass [26]): 5 (mortality of 90% or above (nearly complete death))
B: bulrush, herbicidal effect (evaluation scale 0-5) (bulrush [27]): 5 (mortality of 90% or above (nearly complete death))
C: ducksalad, herbicidal effect (evaluation scale 0-5) (ducksalad [28]): 5 (mortality of 90% or above (nearly complete death))
A: barnyardgrass, herbicidal effect (evaluation scale 0-5) (barnyardgrass [29]): 4 (mortality of at least 70% and less than 90%)

CC(C)COC(=O)N(c1ccccc1CN1COC(c2ccccc2)CC1=O)S(=O)(=O)C(F)(F)F (centres unmarked) [II-13]
H: Italian ryegrass, herbicidal effect (evaluation scale 0-5) (Italian ryegrass [1]): 0 (mortality of less than 5% (almost ineffective))
D: large crabgrass, herbicidal effect (evaluation scale 0-5) (large crabgrass [2]): 2 (mortality of at least 20% and less than 40%)
F: wild oat, herbicidal effect (evaluation scale 0-5) (wild oat [3]): 0 (mortality of less than 5% (almost ineffective))
E: giant foxtail, herbicidal effect (evaluation scale 0-5) (giant foxtail [4]): 4 (mortality of at least 70% and less than 90%)
I: velvetleaf, herbicidal effect (evaluation scale 0-5) (velvetleaf [30]): 0 (mortality of less than 5% (almost ineffective))
L: common lambsquater, herbicidal effect (evaluation scale 0-5) (common lambsquater [5]): 0 (mortality of less than 5% (almost ineffective))
J: common ragweed, herbicidal effect (evaluation scale 0-5) (common ragweed [6]): 0 (mortality of less than 5% (almost ineffective))
K: redroot pigweed, herbicidal effect (evaluation scale 0-5) (redroot pigweed [8]): 0 (mortality of less than 5% (almost ineffective))
N: common chickweed, herbicidal effect (evaluation scale 0-5) (common chickweed [9]): 0 (mortality of less than 5% (almost ineffective))
G: water foxtail, herbicidal effect (evaluation scale 0-5) (water foxtail [10]): 0 (mortality of less than 5% (almost ineffective))
A: barnyardgrass, herbicidal effect (evaluation scale 0-5) (barnyardgrass [11]): 3 (mortality of at least 40% and less than 70%)
a: transplanted rice, effect on crop (evaluation scale 0-5) (transplanted rice): 0 (mortality of less than 5% (almost ineffective))
B: bulrush, herbicidal effect (evaluation scale 0-5) (bulrush [12]): 5 (mortality of 90% or above (nearly complete death))
C: ducksalad, herbicidal effect (evaluation scale 0-5) (ducksalad [13]): 5 (mortality of 90% or above (nearly complete death))
A: barnyardgrass, herbicidal effect (evaluation scale 0-5) (barnyardgrass [14]): 5 (mortality of 90% or above (nearly complete death))
H: Italian ryegrass, herbicidal effect (Italian ryegrass [15]): 0 (mortality of less than 5% (almost ineffective))
D: large crabgrass, herbicidal effect (large crabgrass [16]): 2 (mortality of at least 20% and less than 40%)
F: wild oat, herbicidal effect (wild oat [17]): 0 (mortality of less than 5% (almost ineffective))
O: beadstraw, herbicidal effect (beadstraw): 4 (mortality of at least 70% and less than 90%)
E: giant foxtail, herbicidal effect (giant foxtail [18]): 0 (mortality of less than 5% (almost ineffective))
I: velvetleaf, herbicidal effect (velvetleaf [19]): 0 (mortality of less than 5% (almost ineffective))
L: common lambsquater, herbicidal effect (common lambsquater [20]): 0 (mortality of less than 5% (almost ineffective))
J: common ragweed, herbicidal effect (common ragweed [21]): 4 (mortality of at least 70% and less than 90%)
M: posumbu knotweed, herbicidal effect (posumbu knotweed [22]): 1 (mortality of at least 5% and less than 20%)
K: redroot pigweed, herbicidal effect (redroot pigweed [23]): 0 (mortality of less than 5% (almost ineffective))
N: common chickweed, herbicidal effect (common chickweed [24]): 3 (mortality of at least 40% and less than 70%)
G: water foxtail, herbicidal effect (water foxtail [25]): 0 (mortality of less than 5% (almost ineffective))
A: barnyardgrass, herbicidal effect (barnyardgrass [26]): 2 (mortality of at least 20% and less than 40%)
B: bulrush, herbicidal effect (evaluation scale 0-5) (bulrush [27]): 5 (mortality of 90% or above (nearly complete death))
C: ducksalad, herbicidal effect (evaluation scale 0-5) (ducksalad [28]): 5 (mortality of 90% or above (nearly complete death))
A: barnyardgrass, herbicidal effect (evaluation scale 0-5) (barnyardgrass [29]): 5 (mortality of 90% or above (nearly complete death))
